Data on one compound can be found in US20250017973A1, “Nutritional composition for cancer” (N.V. Nutricia, priority 2022, published 2025).

The assay relates to mammary adenocarcinoma cells. The assay is described as follows: Dark Agouti Mammary Adenocarcinoma (DAMA) tumour-bearing model: tumour growth and MTX efficacy. It counts as in vivo, rat. Particulars: MTX treated rats. On the procedure:
Tumour-bearing studies were conducted in accordance with ethical guidelines approved by the University of Adelaide Animal Ethics committee in accordance with the National Health and Medical Research Committee's Code for the care and use of animals for scientific research. All experiments were performed with N=8 rats per group.
The rats were individually-housed in conventional, open top cages under 12 h light/dark cycles with ad libitum access to autoclaved food and sterile water. Sawdust bedding was provided in all cases with enrichment (crinkle paper for tumour-naïve model or toilet rolls for tumour-bearing model). All cages were randomly arranged across racks to prevent potential bias and dampen variation.
The Dark Agouti Mammary Adenocarcinoma (DAMA) model was used to assess the effect of a composition comprising hydrolysed whey proteins and MCTs on tumor growth. Following acclimatisation (1 week with AIN93G control diet), female DA rats weighing 150-170 g were given ad libitum access to the test or control diet (table 1) for two weeks prior to methotrexate (MTX) treatment (day-14). […] Tumours were measured daily using digital calipers to determine their volume (cm^3). Tumour burden was calculated as tumour length width*depth (volume) and expressed as relative to body weight (% BW, cm^3/g). […]

`CN(Cc1cnc2nc(N)nc(N)c2n1)c1ccc(C(=O)N[C@@H](CCC(=O)O)C(=O)O)cc1` [MTX, methotrexate]: the “tumour burden at necropsy (FIG. 1B volume, FIG. 1C weight, relative to body weight)” value was “significantly decreased to (near) zero”.
